Assay results published in the supplement of paper PMC8967900.

How the values were obtained:
Assay in all cases: selective drug sensitivity score (sDSS, relative to normal bone marrow) (sDSS (score)); higher = more potent and effective on the cell line relative to normal bone marrow cells
Details in all cases: 72 h
380 = tested on: 380
ALL-PO = tested on: ALL-PO
ALL-SIL = tested on: ALL-SIL
COG-LL-317 = tested on: COG-LL-317
COG-LL-355h = tested on: COG-LL-355h
COG-LL-394h = tested on: COG-LL-394h
COG-LL-402h = tested on: COG-LL-402h
JURKAT = tested on: JURKAT
KARPAS-45 = tested on: KARPAS-45
KASUMI-9 = tested on: KASUMI-9
MHH-CALL-2 = tested on: MHH-CALL-2
MHH-CALL-3 = tested on: MHH-CALL-3
MOLT-4 = tested on: MOLT-4
P12-ICHIKAWA = tested on: P12-ICHIKAWA
P30-OHKUBO = tested on: P30-OHKUBO
PEER = tested on: PEER
PF-382 = tested on: PF-382
RCH-ACV = tested on: RCH-ACV
RPMI-8402 = tested on: RPMI-8402
TMD5 = tested on: TMD5
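Also: ALL cell lines in 384-well plates, five doses spanning 10,000-fold, each plate scaled between vehicle and 100 µmol/L benzalkonium chloride controls, sDSS an adapted area-under-curve metric.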

| SMILES | selective drug sensitivity score 380 | selective drug sensitivity score (ALL-PO) | selective drug sensitivity score (ALL-SIL) | selective drug sensitivity score (COG-LL-317) | selective drug sensitivity score (COG-LL-355h) | selective drug sensitivity score (COG-LL-394h) | selective drug sensitivity score (COG-LL-402h) | selective drug sensitivity score (JURKAT) | selective drug sensitivity score (KARPAS-45) | selective drug sensitivity score (KASUMI-9) | selective drug sensitivity score (MHH-CALL-2) | selective drug sensitivity score (MHH-CALL-3) | selective drug sensitivity score (MOLT-4) | selective drug sensitivity score (P12-ICHIKAWA) | selective drug sensitivity score (P30-OHKUBO) | selective drug sensitivity score (PEER) | selective drug sensitivity score (PF-382) | selective drug sensitivity score (RCH-ACV) | selective drug sensitivity score (RPMI-8402) | selective drug sensitivity score (TMD5) |
| --- | --- | --- | --- | --- | --- | --- | --- | --- | --- | --- | --- | --- | --- | --- | --- | --- | --- | --- | --- | --- |
| Clc1ccccc1C(c1ccccc1)(c1ccccc1)n1cccn1 [TRAM-34] (top concentration 1000 nM) | -0.08 | -0.08 | -0.08 | -0.08 | -0.08 | -0.08 | -0.08 | -0.08 | -0.08 | 2.52 | 1.12 | -0.08 | -0.08 | -0.08 | 1.12 | -0.08 | -0.08 | -0.08 | -0.08 | -0.08 |
| COc1cc2c(NC3CCN(C(C)C)CC3)nc(C3CCCCC3)nc2cc1OCCCN1CCCC1 [UNC0638] (top concentration 10000 nM) | 0.06 | -1.74 | 2.16 | 0.06 | 1.86 | 0.16 | 1.16 | -2.64 | 2.36 | -1.64 | -2.84 | 0.86 | -3.74 | -2.84 | 0.86 | 1.26 | -0.54 | 0.66 | -0.04 | -4.84 |
| CC[C@H](CO)Nc1nc(NCc2ccccc2)c2ncn(C(C)C)c2n1 [Seliciclib] (top concentration 10000 nM) | -1.04 | -1.04 | 3.06 | 3.56 | 2.46 | -1.04 | -1.04 | -0.84 | 1.96 | -0.44 | 1.26 | -1.04 | -1.04 | -0.94 | -0.14 | -0.24 | -1.04 | 2.16 | -0.54 | -1.04 |
| O=C1NC(=O)[C@@H](c2cn3c4c(cccc24)CCC3)[C@@H]1c1c[nH]c2ccccc12 [Tivantinib] (top concentration 1000 nM) | 6.18 | 2.08 | 7.18 | 3.68 | 0.18 | -0.42 | 2.38 | 3.98 | 4.08 | 5.38 | 8.48 | 0.78 | 3.28 | 3.68 | 6.58 | 4.38 | 2.78 | 4.28 | 3.68 | 5.38 |
| O=c1ncn2nc(Sc3ccc(F)cc3F)ccc2c1-c1c(Cl)cccc1Cl [Neflamapimod] (top concentration 10000 nM) | 4.7 | 5 | 1.3 | 1.7 | 2.2 | 1.3 | 0.1 | 1.7 | 0.1 | 3.1 | 1.8 | 0 | 0 | 1 | 2.2 | 2.3 | 0.5 | 6.7 | 2.1 | 0 |
| C[C@@H]1CN(C(=O)c2ccc(NC(=O)c3cc(O[C@H](C)c4c(Cl)ccc(F)c4Cl)c(N)nn3)cc2)C[C@H](C)N1 [Ensartinib] (top concentration 1000 nM) | 0.06 | 0.26 | 1.06 | -2.34 | 1.86 | 0.86 | -2.34 | -2.54 | 2.36 | 0.76 | -2.84 | -2.84 | -0.54 | -2.54 | 2.06 | 1.96 | -2.64 | -1.44 | 0.06 | -1.84 |
| CCc1c(C(=O)C(N)=O)c2c(OCC(=O)O)cccc2n1Cc1ccccc1 [Varespladib] (top concentration 10000 nM) | -0.84 | -0.84 | -0.84 | -0.74 | -0.84 | -0.84 | 6.36 | -0.74 | -0.84 | -0.84 | -0.84 | -0.84 | -0.84 | -0.84 | -0.84 | -0.84 | -0.84 | -0.84 | -0.84 | -0.84 |
| C[C@H]1CN(C2COC2)CCN1c1ccc(Nc2cc(-c3ccnc(N4CCn5c(cc6c5CC(C)(C)C6)C4=O)c3CO)cn(C)c2=O)nc1 [GDC-0853] (top concentration 1000 nM) | 0 | 0 | 1.6 | 0 | 0 | 0 | 1.1 | 0 | 0 | 0 | 0 | 0 | 0 | 0 | 0 | 0 | 0 | 0 | 0 | 0 |
| CCC1(c2ccc(N)cc2)CCC(=O)NC1=O (stereo not given) [Aminoglutethimide] (top concentration 10000 nM) | 0 | 0 | 0 | 0 | 0.6 | 0 | 0 | 0 | 0 | 0.6 | 2.4 | 0 | 0 | 0 | 0 | 0 | 0 | 0 | 0 | 0 |
| COc1cc2c(Nc3ccc(Cl)c(Cl)c3F)ncnc2cc1OC[C@@H]1C[C@@H]2CN(C)C[C@@H]2C1 [Tesevatinib] (top concentration 1000 nM) | -0.96 | 2.34 | -0.26 | 0.04 | 2.04 | -0.36 | 1.64 | -0.16 | 0.74 | 0.74 | 1.44 | 3.64 | -0.86 | -0.46 | 0.94 | 1.84 | -1.06 | 0.64 | 0.44 | 3.24 |
| CC[C@@H]1CN(C(=O)NCC(F)(F)F)C[C@@H]1c1cnc2cnc3[nH]ccc3n12 [Upadacitinib] (top concentration 10000 nM) | -0.16 | -7.16 | -7.16 | -7.16 | -7.16 | -7.16 | -7.16 | -6.86 | -7.16 | -2.76 | -7.16 | -0.46 | -7.16 | -7.16 | -3.16 | -6.66 | -6.06 | -7.16 | -7.16 | -7.16 |
| CN(C)C(=O)c1ccc(S(=O)(=O)c2ccc(NC(=O)[C@@](C)(O)C(F)(F)F)c(Cl)c2)cc1 [AZD7545] (top concentration 10000 nM) | -0.2 | 2.6 | 3.4 | 0.7 | -0.2 | 4.1 | -0.2 | 7 | 2.9 | -0.2 | -0.2 | 0.1 | 1.6 | 2.7 | 0.6 | 6.2 | 3.1 | 3 | 5.7 | -0.2 |
| CNC(=O)c1ccc(C)c(-n2c(C)cc(OCc3ccc(F)cc3F)c(Br)c2=O)c1 (top concentration 1000 nM) | 0 | 0 | 0 | 0 | 0 | 0 | 0 | 0.9 | 0 | 2.3 | 4.9 | 0 | 0 | 0 | 4.5 | 0 | 0 | 7.4 | 0 | 0 |
| Cc1nc(=O)c2cc(CN(C)c3ccc(C(=O)N[C@@H](CCC(=O)O)C(=O)O)s3)ccc2[nH]1 [Raltitrexed] (top concentration 1000 nM) | 20.7 | 23 | 17.3 | 19.5 | 4.82 | 2.12 | 8.22 | 14.6 | 9.52 | 15.2 | 19.6 | 9.92 | 17.3 | 20.4 | 25.3 | 13 | 13.1 | 29.2 | 23.4 | -0.68 |
| O=C(O)CCCCC(CCSCc1ccccc1)SCc1ccccc1 (stereo not given) [Devimistat (CPI-613)] (top concentration 10000 nM) | 1.9 | 0 | 0 | 0 | 2.4 | 0 | 0 | 0 | 0 | 0 | 0.8 | 1 | 0 | 0 | 0 | 0.1 | 0 | 0 | 0 | 0 |
| C[C@@H]1CCN(C(=O)CC#N)C[C@@H]1N(C)c1ncnc2[nH]ccc12 [Tofacitinib] (top concentration 5000 nM) | -7.86 | -7.86 | -7.86 | -7.86 | 0.44 | -7.86 | -7.86 | -7.86 | -7.86 | -7.86 | -7.86 | -7.86 | -7.86 | -7.86 | -6.66 | -4.66 | -7.36 | -7.86 | -7.86 | -7.86 |
| Clc1ccc(C(c2ccccc2Cl)C(Cl)Cl)cc1 (stereo not given) [Mitotane] (top concentration 10000 nM) | -0.08 | -0.08 | -0.08 | -0.08 | 0.02 | -0.08 | -0.08 | -0.08 | 0.02 | -0.08 | 1.32 | -0.08 | -0.08 | -0.08 | -0.08 | -0.08 | 0.12 | -0.08 | -0.08 | -0.08 |
| CC(C)N(CCCNC(=O)Nc1ccc(C(C)(C)C)cc1)C[C@H]1O[C@@H](n2cc(Br)c3c(N)ncnc32)[C@H](O)[C@@H]1O [SGC0946] (top concentration 10000 nM) | -1.12 | 1.58 | -0.92 | -1.12 | 1.88 | -0.82 | -0.62 | -0.42 | 3.98 | 0.28 | 2.18 | -1.12 | 0.08 | 0.08 | 2.58 | 0.88 | 0.28 | -0.82 | 1.78 | 3.98 |
